The subject of assay [1] is MDSL cells. The assay is described as follows: Xenograft of MDSL cells in NSG mice. It counts as in vivo, mouse. Conditions: 8 mg/kg weekly intraperitoneal; for spleen weight: NSG mice transplanted with MDSL cells. The protocol: (§1) (A) Cultured MDS-derived cell line (MDSL) cells were treated with tocilizumab or IgG for 1 hour at the indicated concentration. Cells were then challenged with human recombinant IL-6 (10 ng/mL) for 15 min followed by a western blot assay of p-STAT3. Actin was used as a loading control. (B) 1×10^4/well MDSL cells were seeded in a 96-well plate on day 0 in MDSL culture medium with 50 μg/mL tocilizumab or 50 μg/mL human IgG control. Relative cell number was assessed with CCK-8 reagent at the indicated time points. (C) 1×10^6 MDSL cells were transplanted into sub-lethally irradiated NSG recipient mice. 10 days after transplantation, mice were subjected to weekly treatment with tocilizumab (TCZ) or human IgG (8 mg/kg) by intraperitoneal administration. Engraftment was evaluated 60 days post transplantation via flow cytometry assays of hCD45+ mononuclear cells in the peripheral blood. N=5 in each group, data are presented as Mean±SD. (D) Quantification of the percentage of hCD45+ cells in C. (E-F) Colony-forming unit (CFU) assays in normal (E) and high risk MDS patient (F) bone marrow derived CD34+ cells. 1×10^3 normal (E) or 2×10^3 patient CD34+ cells (F) were seeded in MethoCult medium supplemented with human IgG or tocilizumab (50 μg/mL) on day 0. The number of colonies was accessed on day 14. Triplicate assay colonies were independently identified by two individuals. Data are presented as Mean±SD. E, G, M, GM, and GEMM represent BFU/CFU-E, CFU-G, CFU-M, CFU-GM, and CFU-GEMM, respectively, in both E and F.
NOD/SCID-IL2Rg mice (NSG) mice were purchased from the Jackson Laboratory (Stock #005557). 1×10^6 of MDS-derived cell line (MDSL) cells were retro-orbitally injected into 12-week-old sub-lethally irradiated (250 rad) female NSG mice. Ten days after transplantation, human IgG isotype control (BE0297, InVivoMab) or tocilizumab (Selleck) were administered at 8 mg/kg weekly via intraperitoneal injection. To evaluate the engraftment, peripheral blood was collected from tail vein on day 60. […]

The subject of assay [2] is high risk MDS patient bone marrow derived CD34+ cells. The assay is described as follows: Colony-forming unit (CFU) assay, high risk MDS patient bone marrow CD34+ cells. It counts as cell-based. Conditions: CD34+ cells from high risk MDS patients, 50 μg/mL, day 14, vs human IgG. The protocol: as §1, with “(E-F) Colony-forming unit (CFU) assays in normal (E) and high risk MDS patient (F) bone marrow derived CD34+ cells. 1×10^3 normal (E) or 2×10^3 patient CD34+ cells (F) were seeded in MethoCult medium supplemented with human IgG or tocilizumab (50 μg/mL) on day 0. The number of colonies was accessed on day 14. Triplicate assay colonies were independently identified by two individuals. Data are presented as Mean±SD. E, G, M, GM, and GEMM represent BFU/CFU-E, CFU-G, CFU-M, CFU-GM, and CFU-GEMM, respectively, in both E and F.” left out
(§2) For the CFU assay, CD34+ cells were thawed in a 37° C. water bath. […] Cell viability was assessed with trypan blue staining and counted with Bio-Rad TC20 cell counter. […] 14 days after seeding, the CFU assay was ready for evaluation. Colonies were counted under an inverted microscope (EVOS M5000, Thermo Fisher), and the colonies were identified by two independent individuals.

The subject of assay [3] is normal bone marrow CD34+ cells. The assay is described as follows: Colony-forming unit (CFU) assay, normal bone marrow CD34+ cells. It is filed as cell-based. Conditions: 50 μg/mL, day 14, vs human IgG. The protocol: as §1, with “(E-F) Colony-forming unit (CFU) assays in normal (E) and high risk MDS patient (F) bone marrow derived CD34+ cells. 1×10^3 normal (E) or 2×10^3 patient CD34+ cells (F) were seeded in MethoCult medium supplemented with human IgG or tocilizumab (50 μg/mL) on day 0. The number of colonies was accessed on day 14. Triplicate assay colonies were independently identified by two individuals. Data are presented as Mean±SD. E, G, M, GM, and GEMM represent BFU/CFU-E, CFU-G, CFU-M, CFU-GM, and CFU-GEMM, respectively, in both E and F.” left out
as §2

Assay [4] has as its system MDSL cells. The assay is described as follows: Cell death in MDSL cells. It counts as cell-based, human.
Assay [5] relates to MDSL cells. In words: MDSL cell proliferation (CCK-8). It is filed as cell-based. Conditions: 50 μg/mL, vs human IgG control. As for the experimental part:
as §1, with “Data are presented as Mean±SD. E, G, M, GM, and GEMM represent BFU/CFU-E, CFU-G, CFU-M, CFU-GM, and CFU-GEMM, respectively, in both E and F.” left out

In another assay the test system is p-STAT3. In words: Western blot of p-STAT3 in MDSL cells challenged with human recombinant IL-6. Conditions: 1 hour treatment, then human recombinant IL-6 10 ng/mL for 15 min, vs IgG. It counts as cell-based. As for the experimental part: as §1, with “Data are presented as Mean±SD. E, G, M, GM, and GEMM represent BFU/CFU-E, CFU-G, CFU-M, CFU-GM, and CFU-GEMM, respectively, in both E and F.” left out
(In general: A western blot detects proteins with antibodies after separation by electrophoresis.)

The conditions of assay [6]: transfusion-dependent patients, low or intermediate-1-risk MDS, vs placebo; cited from earlier work.

“Also recorded” adds a separate entry of the source.

As to tocilizumab, the spleen weight result was “reduces spleen weight” in the assay on MDSL cells [1] and “reduced the spleen weight” in the assay with MDSL cells [1] (listed as Tocilizumab). Besides, the “MDSL engraftment (hCD45+ mononuclear cells in the peripheral blood)” value in the assay with MDSL cells [1] (NSG mice, 60 days post transplantation, vs human IgG) is “significantly reduced MDSL engraftment; also recorded: markedly reduced the engraftment”. The “colony numbers / clonogenicity” value in assay [2] is “markedly reduced; also recorded: reduces cell proliferation and colony formation; also recorded: reduces the colony numbers”; in assay [2] (listed as Tocilizumab), “significantly reduced clonogenicity”. The figures for the “colony expansion or composition / colony numbers” value in assay [3] and in assay [3] (listed as Tocilizumab) were “no effects on the colony numbers” and “did not affect colony expansion or composition”, respectively. For the same molecule, the cell death result in the assay with MDSL cells [4] is listed as “partial induction of cell death; also recorded: partially induces cell death”. In addition, the “cell proliferation (relative cell number, CCK-8)” value in the assay on MDSL cells [5] is “decreased cell proliferation; also recorded: reduces cell proliferation”. The p-STAT3 entry with p-STAT3 is on record as “significant reduction”.

B1: siltuximab (antibody, chains of the INN, looked up, V domains shown)
VH: EVQLVESGGKLLKPGGSLKLSCAASGFTFSSFAMSWFRQSPEKRLEWVAEISSGGSYTYYPDTVTGRFTISRDNAKNTLYLEMSSLRSEDTAMYYCARGLWGYYALDYWGQGTSVTVSS
VL: QIVLIQSPAIMSASPGEKVTMTCSASSSVSYMYWYQQKPGSSPRLLIYDTSNLASGVPVRFSGSGSGTSYSLTISRMEAEDAATYYCQQWSGYPYTFGGGTKLEIK
Take B1: the RBC transfusions result in assay [6] is given as “no reduction in RBC transfusions”.

Values taken from patent US20240228607A9, “METHODS FOR TREATING HIGH RISK MYELODYSPLASTIC SYNDROMES” (Northwestern University, priority 2022, published 2024).
